For assay [1], the target named is T1, Bcl-2-related protein A1 (Mus musculus, UniProt Q07440).
T1 sequence (Q07440 whole entry): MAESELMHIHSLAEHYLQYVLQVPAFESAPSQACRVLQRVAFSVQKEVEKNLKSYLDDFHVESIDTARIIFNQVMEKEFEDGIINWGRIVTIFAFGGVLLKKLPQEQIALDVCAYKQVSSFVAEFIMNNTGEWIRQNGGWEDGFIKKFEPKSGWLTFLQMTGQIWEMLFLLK
Description: small-molecule antagonists of Bfl-1/BH3 interaction – biochemical, TR-FRET, mouse Bfl-1, confirmation (AID 621).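 Note: TR-FRET binding of GST-Bfl-1 to FITC-labelled Bid peptide via terbium antibody.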 A general note: TR-FRET usually uses a lanthanide donor and a delayed reading to cut background.

Assay [2] addresses T1, Bcl-2-related protein A1. Description: Bfl-1 binding inhibitors, SAR follow-up, biochemical, fluorescence polarization (AID 1070). (In fluorescence polarisation assays a small probe gives low polarisation when free and higher when bound to something large.)
The target in assay [3] is Glyceraldehyde-3-phosphate dehydrogenase (Homo sapiens, UniProt P04406).
Assay [4] addresses Polyadenylate-binding protein 1 (Homo sapiens, UniProt P11940). The assay can be described thus: blockers of PABP interaction with poly(A) – biochemical, fluorescence polarization, […] (AID 2014).
For assay [5], the target named is Eukaryotic translation initiation factor 4H (Homo sapiens, UniProt Q15056). The assay can be described thus: eIF4H binding inhibition – biochemical, uHTS, fluorescence polarization, translation initiation inhibitor project, primary screen (AID 2012).
Assay [6] has as its target DNA dC->dU-editing enzyme APOBEC-3G (Homo sapiens, UniProt Q9HC16). It is filed as functional.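 Note: Dose-response counterscreen measuring inhibition of APOBEC3G DNA deaminase activity, run while confirming APOBEC3A inhibitors.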
The target of assay [7] is DNA dC->dU-editing enzyme APOBEC-3A (Homo sapiens, UniProt P31941). The assay can be described thus: Dose Response confirmation of small molecule APOBEC3A DNA Deaminase Inhibitors via a fluorescence-based single-stranded DNA deaminase assay. [Related pubchem assays (depositor defined):AID493011, AID493024]. The assay is classed as functional.
DNA dC->dU-editing enzyme APOBEC-3A, sequence (P31941 whole entry): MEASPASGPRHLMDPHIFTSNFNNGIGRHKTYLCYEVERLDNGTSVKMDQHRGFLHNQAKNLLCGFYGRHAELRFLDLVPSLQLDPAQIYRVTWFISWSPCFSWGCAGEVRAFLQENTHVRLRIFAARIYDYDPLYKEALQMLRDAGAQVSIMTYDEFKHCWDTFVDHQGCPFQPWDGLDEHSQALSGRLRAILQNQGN
The next assay concerns the target T2, Estrogen receptor (Homo sapiens, UniProt P03372).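 Note: potency for inhibiting coactivator peptide recruitment to the receptor.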
T2 sequence (P03372 whole entry): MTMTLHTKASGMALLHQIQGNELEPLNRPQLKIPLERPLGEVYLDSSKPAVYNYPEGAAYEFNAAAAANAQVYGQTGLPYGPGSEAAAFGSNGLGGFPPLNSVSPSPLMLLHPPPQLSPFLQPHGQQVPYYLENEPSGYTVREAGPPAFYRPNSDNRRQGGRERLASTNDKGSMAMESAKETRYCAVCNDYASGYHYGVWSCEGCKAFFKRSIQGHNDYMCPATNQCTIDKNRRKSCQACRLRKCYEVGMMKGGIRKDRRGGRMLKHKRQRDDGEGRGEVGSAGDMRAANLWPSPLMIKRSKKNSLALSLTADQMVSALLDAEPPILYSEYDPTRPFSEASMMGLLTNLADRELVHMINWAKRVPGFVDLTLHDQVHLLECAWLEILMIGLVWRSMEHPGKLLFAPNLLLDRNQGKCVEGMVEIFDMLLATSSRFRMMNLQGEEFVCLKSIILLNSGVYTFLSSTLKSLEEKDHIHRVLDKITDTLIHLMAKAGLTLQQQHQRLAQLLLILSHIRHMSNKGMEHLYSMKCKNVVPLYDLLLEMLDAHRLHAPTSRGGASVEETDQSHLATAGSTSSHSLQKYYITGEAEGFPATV

The target of assay [8] is Voltage-dependent T-type calcium channel subunit alpha-1H (Homo sapiens, UniProt O95180). The assay is classed as functional.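 Note: channel activity triggered by adding a high calcium stimulation buffer.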
The nature of assay [9]: viability of uninfected HEp-2 cells – cell-based, HTS, cytotoxicity control for RSV inhibitor project, dose response (AID 2410). It is filed as functional. The conditions noted are these: human respiratory syncytial virus.
Assay [10] is described as follows: cells.
A short description of assay [11]: HepG2 cell cytotoxicity, dose response, cytotoxicity control for non-replicating M. tuberculosis project (AID 489018). The conditions noted are these: Mycobacterium tuberculosis. The assay is classed as functional.
Assay [12] in a line: Vero E6 cell cytotoxicity, dose response, cytotoxicity control for non-replicating M. tuberculosis project, secondary assay (AID 492998). The assay is classed as functional, VeroE6. The following applies: Vero C1008.
Assay [13] is described as follows: cells. The assay is classed as functional.
Assay [14] is described as follows: THP-1 cell cytotoxicity, dose response, cytotoxicity control for non-replicating M. tuberculosis project (AID 489025). The assay is classed as functional.
For assay [15], the target named is T3, Corticotropin-releasing factor receptor 2/Corticotropin-releasing factor-binding protein (Homo sapiens, UniProt P24387+Q13324).
T3 sequence (Q13324 whole entry): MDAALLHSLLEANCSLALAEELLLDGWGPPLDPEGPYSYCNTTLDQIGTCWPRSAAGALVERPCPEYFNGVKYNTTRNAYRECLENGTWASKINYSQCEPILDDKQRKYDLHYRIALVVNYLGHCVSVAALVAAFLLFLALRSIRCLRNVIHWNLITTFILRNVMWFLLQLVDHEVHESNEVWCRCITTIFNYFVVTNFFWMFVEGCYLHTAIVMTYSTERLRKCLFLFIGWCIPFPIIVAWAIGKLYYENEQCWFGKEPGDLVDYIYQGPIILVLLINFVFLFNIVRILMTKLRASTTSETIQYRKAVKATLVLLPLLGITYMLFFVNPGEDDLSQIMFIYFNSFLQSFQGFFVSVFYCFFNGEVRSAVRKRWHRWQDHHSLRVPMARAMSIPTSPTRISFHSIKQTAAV
T3 sequence (P24387 whole entry): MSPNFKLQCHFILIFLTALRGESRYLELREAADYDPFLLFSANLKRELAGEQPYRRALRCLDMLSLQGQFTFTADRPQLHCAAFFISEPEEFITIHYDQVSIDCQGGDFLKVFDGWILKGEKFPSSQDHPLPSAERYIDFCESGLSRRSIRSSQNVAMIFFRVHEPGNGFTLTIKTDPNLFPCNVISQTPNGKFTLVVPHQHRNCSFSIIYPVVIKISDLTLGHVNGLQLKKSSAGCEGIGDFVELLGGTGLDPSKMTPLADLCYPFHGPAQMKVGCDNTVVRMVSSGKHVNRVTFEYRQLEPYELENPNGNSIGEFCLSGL
The assay can be described thus: activators of CRF receptor 2 with binding protein – uHTS hits, confirmation (AID 602473). The assay is classed as functional. The conditions noted are these: read-out: EC50_Mean.

Assay [16] addresses Eukaryotic translation initiation factor 4E (Mus musculus, UniProt P63073). Description: blockers of eIF4G binding by eIF4E – biochemical, TR-FRET, dose response (AID 855).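 Note: potency for disrupting eIF4E binding to eIF4GI seen as loss of FRET.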 It is filed as functional.
The target of assay [17] is T4, Voltage-gated N-type calcium channel alpha-1B subunit/Amyloid beta A4 precursor protein-binding family A member 1 (Homo sapiens, UniProt Q00975+Q02410). It is filed as protein assay.
T4 sequence (Q00975 whole entry): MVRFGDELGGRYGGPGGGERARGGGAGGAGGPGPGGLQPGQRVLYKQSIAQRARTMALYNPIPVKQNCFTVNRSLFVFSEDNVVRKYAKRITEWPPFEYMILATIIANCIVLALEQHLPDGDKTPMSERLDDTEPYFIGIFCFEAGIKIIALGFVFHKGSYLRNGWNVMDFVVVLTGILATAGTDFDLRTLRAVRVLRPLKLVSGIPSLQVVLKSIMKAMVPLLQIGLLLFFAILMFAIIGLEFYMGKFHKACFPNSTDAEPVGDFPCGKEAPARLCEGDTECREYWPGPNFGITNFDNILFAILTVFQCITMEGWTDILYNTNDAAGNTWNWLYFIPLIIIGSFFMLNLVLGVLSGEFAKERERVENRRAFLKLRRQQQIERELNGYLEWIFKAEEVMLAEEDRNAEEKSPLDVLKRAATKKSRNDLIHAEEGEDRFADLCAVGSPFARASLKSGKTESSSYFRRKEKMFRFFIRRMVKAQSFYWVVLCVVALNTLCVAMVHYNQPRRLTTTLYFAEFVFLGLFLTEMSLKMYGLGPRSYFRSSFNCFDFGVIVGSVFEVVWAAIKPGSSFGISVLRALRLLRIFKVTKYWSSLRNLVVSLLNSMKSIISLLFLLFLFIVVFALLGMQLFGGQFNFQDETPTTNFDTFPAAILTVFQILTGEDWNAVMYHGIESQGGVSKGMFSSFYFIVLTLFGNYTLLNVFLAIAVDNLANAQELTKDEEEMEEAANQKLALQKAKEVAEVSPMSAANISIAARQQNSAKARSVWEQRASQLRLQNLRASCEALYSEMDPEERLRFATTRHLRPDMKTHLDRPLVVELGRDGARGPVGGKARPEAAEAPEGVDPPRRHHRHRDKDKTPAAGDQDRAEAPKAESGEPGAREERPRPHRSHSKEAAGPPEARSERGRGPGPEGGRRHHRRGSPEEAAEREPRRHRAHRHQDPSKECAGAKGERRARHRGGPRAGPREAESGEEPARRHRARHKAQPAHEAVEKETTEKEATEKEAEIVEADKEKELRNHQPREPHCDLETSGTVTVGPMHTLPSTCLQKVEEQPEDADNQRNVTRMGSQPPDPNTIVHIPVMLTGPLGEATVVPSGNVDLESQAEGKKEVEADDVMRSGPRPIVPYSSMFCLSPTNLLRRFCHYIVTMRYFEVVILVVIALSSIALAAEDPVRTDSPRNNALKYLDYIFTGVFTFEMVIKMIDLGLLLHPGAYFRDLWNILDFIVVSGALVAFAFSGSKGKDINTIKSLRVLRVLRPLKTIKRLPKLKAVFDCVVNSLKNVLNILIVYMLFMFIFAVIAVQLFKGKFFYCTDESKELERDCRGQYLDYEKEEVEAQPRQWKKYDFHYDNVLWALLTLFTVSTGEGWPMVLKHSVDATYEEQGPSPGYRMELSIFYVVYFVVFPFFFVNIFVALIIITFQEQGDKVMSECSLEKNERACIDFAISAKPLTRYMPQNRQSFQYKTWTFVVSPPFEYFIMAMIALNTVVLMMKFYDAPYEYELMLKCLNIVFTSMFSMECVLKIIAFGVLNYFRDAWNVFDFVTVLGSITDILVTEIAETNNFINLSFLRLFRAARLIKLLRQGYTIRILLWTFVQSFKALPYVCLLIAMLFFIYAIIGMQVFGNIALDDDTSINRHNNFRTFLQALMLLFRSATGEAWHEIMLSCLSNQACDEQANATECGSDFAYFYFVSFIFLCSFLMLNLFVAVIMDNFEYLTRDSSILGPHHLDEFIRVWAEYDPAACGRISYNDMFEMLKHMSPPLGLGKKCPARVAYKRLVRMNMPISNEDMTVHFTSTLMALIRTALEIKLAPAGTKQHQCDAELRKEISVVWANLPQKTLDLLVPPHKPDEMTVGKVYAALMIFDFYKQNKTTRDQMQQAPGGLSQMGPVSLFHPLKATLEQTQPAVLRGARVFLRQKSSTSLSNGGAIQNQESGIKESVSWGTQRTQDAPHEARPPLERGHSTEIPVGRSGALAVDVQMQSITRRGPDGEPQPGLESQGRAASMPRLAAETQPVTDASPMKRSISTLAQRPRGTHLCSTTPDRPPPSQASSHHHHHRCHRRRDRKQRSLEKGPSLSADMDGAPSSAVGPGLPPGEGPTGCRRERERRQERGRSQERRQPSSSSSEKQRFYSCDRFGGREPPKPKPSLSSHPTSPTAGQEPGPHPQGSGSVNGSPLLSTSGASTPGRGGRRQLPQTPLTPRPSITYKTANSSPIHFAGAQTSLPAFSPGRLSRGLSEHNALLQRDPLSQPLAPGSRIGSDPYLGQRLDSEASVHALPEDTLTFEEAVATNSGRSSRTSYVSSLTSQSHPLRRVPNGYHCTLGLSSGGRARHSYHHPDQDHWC
T4 sequence (Q02410 whole entry): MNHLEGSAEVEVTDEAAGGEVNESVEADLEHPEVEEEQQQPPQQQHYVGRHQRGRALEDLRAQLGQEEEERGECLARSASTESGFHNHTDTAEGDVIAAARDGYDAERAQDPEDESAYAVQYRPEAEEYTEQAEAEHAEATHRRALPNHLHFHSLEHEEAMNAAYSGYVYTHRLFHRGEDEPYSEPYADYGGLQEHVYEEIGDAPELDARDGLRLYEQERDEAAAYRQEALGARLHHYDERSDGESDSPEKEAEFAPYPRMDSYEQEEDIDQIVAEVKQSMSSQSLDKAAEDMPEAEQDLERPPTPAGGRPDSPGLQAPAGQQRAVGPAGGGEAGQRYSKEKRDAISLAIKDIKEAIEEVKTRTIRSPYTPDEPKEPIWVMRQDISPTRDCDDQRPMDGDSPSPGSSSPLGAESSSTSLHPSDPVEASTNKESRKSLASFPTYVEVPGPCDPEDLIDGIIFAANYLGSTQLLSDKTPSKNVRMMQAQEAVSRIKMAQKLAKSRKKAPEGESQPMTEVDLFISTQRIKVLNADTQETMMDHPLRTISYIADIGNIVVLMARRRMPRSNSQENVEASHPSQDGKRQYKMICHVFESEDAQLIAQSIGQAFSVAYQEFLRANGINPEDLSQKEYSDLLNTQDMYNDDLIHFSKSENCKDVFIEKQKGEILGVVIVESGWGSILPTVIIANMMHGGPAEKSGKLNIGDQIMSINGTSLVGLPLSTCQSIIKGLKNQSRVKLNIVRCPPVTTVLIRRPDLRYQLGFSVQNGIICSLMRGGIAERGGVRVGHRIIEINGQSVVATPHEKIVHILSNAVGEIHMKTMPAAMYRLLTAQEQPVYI
In assay [18] the target is T5, Endoribonuclease toxin MazF (Escherichia coli K-12, UniProt P0AE70).
T5 sequence (P0AE70 whole entry): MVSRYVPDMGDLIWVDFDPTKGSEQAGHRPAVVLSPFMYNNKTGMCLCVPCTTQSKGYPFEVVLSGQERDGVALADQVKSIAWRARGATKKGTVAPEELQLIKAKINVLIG
The assay can be described thus: activation of MazEF endoribonuclease cleavage – biochemical, fluorescence, single-stranded RNA substrate, uHTS hits, dose response (AID 588481). The assay is classed as functional.

The target of assay [19] is T6, Zinc finger protein mex-5 (Caenorhabditis elegans, UniProt Q9XUB2).
T6 sequence (Q9XUB2 whole entry): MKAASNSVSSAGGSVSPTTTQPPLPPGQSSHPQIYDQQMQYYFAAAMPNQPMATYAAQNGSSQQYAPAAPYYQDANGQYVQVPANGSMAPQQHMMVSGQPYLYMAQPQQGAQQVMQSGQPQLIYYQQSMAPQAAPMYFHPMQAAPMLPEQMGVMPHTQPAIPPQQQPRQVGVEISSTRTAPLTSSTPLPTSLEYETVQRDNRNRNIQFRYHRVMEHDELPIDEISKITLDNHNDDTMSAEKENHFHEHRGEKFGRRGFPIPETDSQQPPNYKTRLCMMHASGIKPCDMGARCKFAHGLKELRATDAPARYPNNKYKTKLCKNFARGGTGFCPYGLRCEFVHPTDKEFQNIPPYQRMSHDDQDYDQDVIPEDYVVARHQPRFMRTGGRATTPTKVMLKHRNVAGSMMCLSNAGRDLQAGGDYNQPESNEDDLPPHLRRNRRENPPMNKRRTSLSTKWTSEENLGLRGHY
Description: potency of MEX-5 RNA-binding blockers – biochemical, C. elegans, fluorescence polarization, dose response (AID 1960).

The target of assay [20] is T7, RNA-binding protein pos-1 (Caenorhabditis elegans, UniProt G5EF15).
T7 sequence (G5EF15 whole entry): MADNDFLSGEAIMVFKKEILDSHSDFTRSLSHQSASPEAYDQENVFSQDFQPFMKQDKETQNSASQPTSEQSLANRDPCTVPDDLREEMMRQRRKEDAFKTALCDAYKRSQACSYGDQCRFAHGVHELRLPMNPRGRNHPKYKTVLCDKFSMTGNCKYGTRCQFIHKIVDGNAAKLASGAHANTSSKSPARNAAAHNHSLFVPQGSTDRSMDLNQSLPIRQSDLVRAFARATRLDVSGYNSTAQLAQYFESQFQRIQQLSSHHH
The assay can be described thus: disruptors of C. elegans POS-1 RNA interaction – biochemical, fluorescence polarization, dose response (AID 1964).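 Note: purified POS-1 fused to maltose binding protein made in E. coli; potency of compounds blocking POS-1 binding to fluorescent RNA.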

Assay [21] has as its target T5, Endoribonuclease toxin MazF. The assay can be described thus: substrate-only fluorescence increase artefacts – biochemical, single-stranded RNase substrate, counter-screen for MazEF activator project, dose response (AID 588502). The assay is classed as functional. (In general: The purpose of a counterscreen is to sort out artefacts and off-target activity.)
In assay [22] the target is T4, Voltage-gated N-type calcium channel alpha-1B subunit/Amyloid beta A4 precursor protein-binding family A member 1. The assay is classed as protein assay. The source holds these as a separate data set.
A short description of assay [23]: microbe, parasite or virus in culture. It is filed as functional. The following applies: Mycobacterium tuberculosis.
The nature of assay [24]: Luminescence Cell-Based Dose Retest to Confirm Inhibitors of Cancer Stem Cells. [Related pubchem assays (depositor defined):AID2717, AID2721]. The assay is classed as functional. The conditions noted are these: Homo sapiens.

Calls of active or inactive are those of the source.

Here are results for 16 molecules from ChEMBL document CHEMBL1201862, “PubChem BioAssay data set” (2004).
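Throughout, for AC50: cells exposed to compound for roughly 70 hours or longer before luminescence read.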

Polyadenylate-binding protein 1, sequence (P11940 whole entry): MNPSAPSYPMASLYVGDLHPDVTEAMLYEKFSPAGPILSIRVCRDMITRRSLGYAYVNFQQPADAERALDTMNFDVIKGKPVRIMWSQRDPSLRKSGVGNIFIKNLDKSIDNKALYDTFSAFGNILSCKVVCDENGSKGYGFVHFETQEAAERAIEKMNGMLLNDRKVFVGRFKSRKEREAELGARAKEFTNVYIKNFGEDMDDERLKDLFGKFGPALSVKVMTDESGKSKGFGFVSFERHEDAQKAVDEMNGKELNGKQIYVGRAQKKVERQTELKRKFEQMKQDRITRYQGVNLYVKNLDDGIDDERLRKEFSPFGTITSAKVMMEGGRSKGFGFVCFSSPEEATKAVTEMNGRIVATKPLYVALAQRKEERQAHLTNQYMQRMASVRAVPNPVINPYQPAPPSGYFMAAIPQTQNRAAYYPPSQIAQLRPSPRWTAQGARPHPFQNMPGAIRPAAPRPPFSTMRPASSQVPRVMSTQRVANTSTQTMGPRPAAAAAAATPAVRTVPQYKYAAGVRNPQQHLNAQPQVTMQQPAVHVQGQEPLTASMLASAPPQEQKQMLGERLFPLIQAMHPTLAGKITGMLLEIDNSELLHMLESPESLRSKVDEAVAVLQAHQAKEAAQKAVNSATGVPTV
Eukaryotic translation initiation factor 4E, sequence (P63073 whole entry): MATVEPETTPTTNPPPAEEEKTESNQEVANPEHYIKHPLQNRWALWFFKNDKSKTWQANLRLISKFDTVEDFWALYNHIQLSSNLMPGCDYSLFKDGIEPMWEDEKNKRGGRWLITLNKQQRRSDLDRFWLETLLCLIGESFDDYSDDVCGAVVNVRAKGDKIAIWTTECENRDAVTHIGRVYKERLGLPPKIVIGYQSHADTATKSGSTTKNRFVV
DNA dC->dU-editing enzyme APOBEC-3G, sequence (Q9HC16 whole entry): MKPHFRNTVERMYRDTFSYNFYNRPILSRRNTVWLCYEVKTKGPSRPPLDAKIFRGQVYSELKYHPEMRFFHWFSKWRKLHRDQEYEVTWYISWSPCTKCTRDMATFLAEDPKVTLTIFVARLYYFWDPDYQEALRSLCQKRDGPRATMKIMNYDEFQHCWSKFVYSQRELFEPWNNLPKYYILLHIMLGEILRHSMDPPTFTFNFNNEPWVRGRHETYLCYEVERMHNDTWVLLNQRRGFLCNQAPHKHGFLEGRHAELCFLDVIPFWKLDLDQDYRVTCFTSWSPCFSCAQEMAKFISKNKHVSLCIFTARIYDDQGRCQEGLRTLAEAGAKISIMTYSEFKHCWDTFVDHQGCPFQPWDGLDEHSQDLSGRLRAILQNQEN

Regarding `CN(C)C1=C(Cl)C(=O)N(c2ccc(Cl)c(Cl)c2)C1=O`, the IC50 at Bcl-2-related protein A1 [1] is 0.54 µM (active); on Bcl-2-related protein A1 [2], 0.419 µM (active); in assay [3], > 100 µM (not active).
`C=CCNC1=N[C@@H](c2cccc(C(F)(F)F)c2)C(C(=O)OC)=C(C)N1CC`: the IC50 was 9.23 µM (active) in [4], > 100 µM (inactive) in assay [5], 3.81 µM (active) in assay [6] and 3.56 µM (active) in assay [7].
On to `Cc1cc(NC(=O)CSc2cn(CCNC(=O)c3ccc(Cl)cc3)c3ccccc23)no1`, for which the 50% inhibitory concentration (IC50) on Estrogen receptor is 24.9 µM (active). Moreover, in assay [8], the EC50 is 0.13 µM (active).
For the molecule `COc1cccc(NC(=O)CSc2nc3ccccc3nc2N2CCCC2)c1`, in assay [9], the CC50 was 17.2 µM (active). Also, in “cells [10]”, the IC50 was 30.5 µM (active).
For `CCOC(=O)c1ccc2c(c1)[n+](CCO)c(C)n2CC`, the IC50 in assay [4] was 3.29 µM (active); in assay [5], > 100 µM (inactive).
Take `O=C(CSc1nc2ccccc2c(=O)n1-c1ccccc1)NCC1CCCO1` (configuration not stated): the figures for the IC50 in assay [4] and in assay [5] were 6.35 µM (active) and > 100 µM (inactive), respectively.
As to `CCCN(CCC)S(=O)(=O)c1ccc(C(=O)Nc2nnc(-c3cccc(OC)c3)o2)cc1`, the CC50 in assay [11] was 12.4 µM (active); in assay [12] it was 3.51 µM (active); in assay [14], 1.49 µM (active). The IC50 in the assay “cells [13]” is 15.1 µM (active). Further, the EC50 in [15] was 5.45 µM (active).
As for `Cc1ccc(OCCn2c(C3CC(=O)N(Cc4ccccc4)C3)nc3ccccc32)cc1` (configuration not stated), the CC50 in [9] was 25.4 µM (active). The IC50 in “cells [10]” was 3.14 µM (active).
For `CCNc1ccc(C(=O)OCC(=O)NC(C)c2ccccc2)cc1[N+](=O)[O-]` (configuration not stated), the IC50 in [16] is > 64 µM (inactive).
For the molecule `CCOC(=O)Cn1c2ccc(OC)cc2c2nc3ccccc3nc21`, the figures for the IC50 in assay [17] and in assay [22] were > 50 µM (inactive) and 4.34 µM (active), respectively. The EC50 in assay [18] was > 99 µM (inactive); in assay [19], 2.26 µM (active); in assay [20] it was 0.862 µM (inconclusive); in assay [21], 50.7 µM (inactive).
`CC(Oc1ccc(Cl)cc1Cl)C(=O)NNC(=O)C(=O)N1CCCCC1` (configuration not stated): the CC50 in assay [9] was > 50 µM (active). The IC50 in “cells [10]” was 40.6 µM (active).
As for `NC(=O)c1ccc2c(O)c(O)c(-c3cc(Cl)c(N)c(Cl)c3)nc2c1`, the IC50 is 28.9 µM (active) in assay [17] and 14.1 µM (active) in assay [22].
For the molecule `O=C(NC1CCCCCCC1)C1CCN(S(=O)(=O)N2CCCC2)CC1`, the IC50 in [16] is > 64 µM (inactive).
Same read-out and setting: the result for `C=CCn1c(S)nnc1-c1ccoc1` reads > 64 µM (inactive).
On to `CC(=O)c1cccc(NC(=O)Cc2cccs2)c1`, for which the IC50 on Estrogen receptor was 18.5 µM (active).
As to `COc1cc(CNCCc2ccccc2)cc(Cl)c1OCc1ccccc1`, the CC50 was 15.5 µM (active) in [11], 17.4 µM (active) in assay [12], 22.9 µM (active) in assay [23] and 13.7 µM (active) in [14]. The IC50 in “cells [13]” is 13.9 µM (active). The AC50 in assay [24] was 5.32 µM (active).

The IC50 is the concentration at which inhibition is half-maximal. A word on the AC50: it is the concentration giving half of the maximal activity seen.
